Results published in patent US10793542B2, “Hetroarylamine compounds for modulating the hedgehog pathway and preparing method and uses thereof” (DEVELOPMENT CENTER FOR BIOTECHNOLOGY, priority 2016, dated 2020).

Assays:
Format in all cases: cell-based
[1] = tested on: hedgehog pathway (pGL3-7xGli-Luciferase reporter in C3H10T1/2 cells); experiment: Transient transfection of C3H10T1/2 and Gli-Luc reporter assay with SAG stimulation; details: Mus musculus, C3H 10T1/2, SAG 20 nM, 48 hr, read-out: Inhibition of Gli-Luc expression [IC50
Outline: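 C3H10T1/2 cells were transiently transfected with a 7xGli-firefly luciferase reporter and a TK-Renilla control, then treated with serially diluted compounds plus 20 nM SAG in 0.5% FBS for 48 h at 37 °C. Firefly signal was normalized to Renilla and scaled between DMSO with SAG (100%) and without SAG (0%). IC50 was obtained by nonlinear regression.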

Smo D473H mutant = target: T1, Smo D473H mutant (Homo sapiens, UniProt Q99835, D473H); experiment: Reporter assay of C3H10T1/2-Gli-Luc cells transfected with Smo D473H mutant, without SAG; details: C3H10T1/2 cells transfected with pLPCX-SMO-D473H, no SAG, 48 hr; read-out: Inhibition of C3H10T1/2-Gli-Luc-Smo-D473H [IC50
T1 construct: expressed in transfected cells; host or cells: C3H10T1/2 cells (ATCC CCL-226), transient transfection with pLPCX-SMO-D473H
Outline: (§1)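 C3H10T1/2-Gli-Luc cells transiently transfected with wild-type or D473H SMO, replated in 0.5% FBS RPMI and incubated with compounds 48 h at 37 °C without SAG. Dual-luciferase, firefly normalized to Renilla; scaled to DMSO (100%) and 10 μM ALLO-2 (0%); IC50 by nonlinear regression.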

Smo wild type = target: T2, Smo wild type (Homo sapiens, UniProt Q99835); experiment: Reporter assay of C3H10T1/2-Gli-Luc cells transfected with wild-type Smo, without SAG; details: C3H10T1/2 cells transfected with pLPCX-SMO, no SAG, 48 hr; read-out: Inhibition of C3H10T1/2-Gli-Luc-Smo-WT [IC50
T2 construct: expressed in transfected cells; host or cells: C3H10T1/2 cells (ATCC CCL-226), transient transfection with pLPCX-SMO
Outline: as §1

T2 sequence (Q99835 28-787): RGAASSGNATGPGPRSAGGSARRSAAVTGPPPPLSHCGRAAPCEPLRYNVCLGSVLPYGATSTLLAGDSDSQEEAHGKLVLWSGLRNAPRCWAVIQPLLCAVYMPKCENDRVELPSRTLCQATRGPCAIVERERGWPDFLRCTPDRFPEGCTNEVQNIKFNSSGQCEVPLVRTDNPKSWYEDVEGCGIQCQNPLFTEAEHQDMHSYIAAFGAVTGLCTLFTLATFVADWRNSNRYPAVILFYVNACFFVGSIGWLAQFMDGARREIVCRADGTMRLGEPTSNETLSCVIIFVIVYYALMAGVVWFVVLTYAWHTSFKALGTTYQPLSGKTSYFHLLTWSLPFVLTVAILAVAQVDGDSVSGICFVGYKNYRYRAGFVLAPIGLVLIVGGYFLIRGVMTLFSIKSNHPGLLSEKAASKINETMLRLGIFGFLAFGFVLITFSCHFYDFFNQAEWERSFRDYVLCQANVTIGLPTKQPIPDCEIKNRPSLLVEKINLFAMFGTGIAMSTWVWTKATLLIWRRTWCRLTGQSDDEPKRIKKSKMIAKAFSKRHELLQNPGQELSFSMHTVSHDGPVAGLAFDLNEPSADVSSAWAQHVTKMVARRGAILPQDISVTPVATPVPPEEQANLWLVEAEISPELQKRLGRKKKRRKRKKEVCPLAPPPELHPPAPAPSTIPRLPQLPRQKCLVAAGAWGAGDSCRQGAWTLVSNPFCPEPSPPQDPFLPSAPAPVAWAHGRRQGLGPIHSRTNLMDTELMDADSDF
T1 sequence (Q99835 28-787 D473H): as the sequence (Q99835 28-787) above, with D446H counted along it

Row | Structure (SMILES) | IC50 [1] [nM] | IC50 (Smo D473H mutant) [nM] | IC50 (Smo wild type) [nM]
1 | CSc1cnc(Nc2ccc(C(=O)Nc3cc(CN4CCOCC4)ccc3C)cc2)nc1-c1ccc(C#N)cc1 [Compound 33, 4-[4-(4-Cyano-phenyl)-5-methylsulfanyl-pyrimidin-2-ylamino]-N-(2-methyl-5-morpholin-4-ylmethyl-phenyl)-benzamide] | < 100 | 100 to 1000 | < 100
2 | CSc1cnc(Nc2ccc(C(=O)Nc3c(F)cccc3F)cc2)nc1-c1cccnc1 [Compound 10, N-(2,6-Difluoro-phenyl)-4-(5-methylsulfanyl-4-pyridin-3-yl-pyrimidin-2-ylamino)-benzamide] | 100 to 1000 | 100 to 1000 | 100 to 1000
3 | CCN(CC)Cc1ccc(C)c(NC(=O)c2ccc(Nc3cc(-c4ccc(OC(F)(F)F)cc4)c(SC)cn3)cc2)c1 [Compound 87, N-(5-((diethylamino)methyl)-2-methylphenyl)-4-((5-(methylthio)-4-(4-(trifluoromethoxy)phenyl)pyridin-2-yl)amino)benzamide] | < 100 | < 100 | < 100
4 | CSc1cnc(Nc2ccc(C(=O)Nc3ccc(C(F)(F)F)c(Cl)c3)cc2)nc1-c1ccc(C#N)cc1 [Compound 4, N-(3-Chloro-4-trifluoromethyl-phenyl)-4-[4-(4-cyano-phenyl)-5-methylsulfanyl-pyrimidin-2-ylamino]-benzamide] | 100 to 1000 | 100 to 1000 | 100 to 1000
5 | CSc1cnc(Nc2ccc(C(=O)Nc3ccc(C#N)cc3)cc2)nc1-c1cccnc1F [Compound 18, N-(4-Cyano-phenyl)-4-[4-(2-fluoro-pyridin-3-yl)-5-methylsulfanyl-pyrimidin-2-ylamino]-benzamide] | 100 to 1000 | 100 to 1000 | 100 to 1000
6 | CSc1cnc(Nc2ccc(C(=O)Nc3cc(CN4CCOCC4)ccc3C)cc2)nc1-c1ccccc1 [Compound 20, N-(2-Methyl-5-morpholin-4-ylmethyl-phenyl)-4-(5-methylsulfanyl-4-phenyl-pyrimidin-2-ylamino)-benzamide] | < 100 | 100 to 1000 | < 100
7 | CSc1cnc(Nc2ccc(C(=O)Nc3cc(CN4CCN(C)CC4)ccc3C)cc2)cc1-c1ccc(F)cc1 [Compound 89, 4-((4-(4-fluorophenyl)-5-(methylthio)pyridin-2-yl)amino)-N-(2-methyl-5-((4-methylpiperazin-1-yl)methyl)phenyl)benzamide] | < 100 | 100 to 1000 | < 100
8 | CSc1cnc(Nc2ccc(C(=O)Nc3cc(CN4CCOCC4)ccc3C)cc2)nc1-c1ccc(OC(F)(F)F)cc1 [Compound 24, N-(2-Methyl-5-morpholin-4-ylmethyl-phenyl)-4-[5-methylsulfanyl-4-(4-trifluoromethoxy-phenyl)-pyrimidin-2-ylamino]-benzamide] | < 100 | < 100 | < 100
9 | CCOc1cnc(Nc2ccc(C(=O)Nc3cc(CN(CC)CC)ccc3C)cc2)nc1-c1ccc(F)cc1 [Compound 77, N-(5-Diethylaminomethyl-2-methyl-phenyl)-4-[5-ethoxy-4-(4-fluoro-phenyl)-pyrimidin-2-ylamino]-benzamide] | < 100 | 100 to 1000 | < 100
10 | COc1cnc(Nc2ccc(C(=O)Nc3cc(CN4CCN(C)CC4)ccc3C)cc2)nc1-c1ccc(OC(F)(F)F)cc1 [Compound 52, 4-[5-Methoxy-4-(4-trifluoromethoxy-phenyl)-pyrimidin-2-ylamino]-N-[2-methyl-5-(4-methyl-piperazin-1-ylmethyl)-phenyl]-benzamide] | < 100 | > 1000 | < 100
11 | CCOc1cnc(Nc2ccc(C(=O)Nc3cc(CN(CC)CC)ccc3C)cc2)nc1-c1ccc(OC(F)(F)F)cc1 [Compound 74, N-(5-Diethylaminomethyl-2-methyl-phenyl)-4-[5-ethoxy-4-(4-trifluoromethoxy-phenyl)-pyrimidin-2-ylamino]-benzamide] | < 100 | 100 to 1000 | < 100
12 | CCOc1cnc(Nc2ccc(C(=O)Nc3cc(CN4CCOCC4)ccc3C)cc2)nc1-c1ccc(F)cc1 [Compound 75, 4-[5-Ethoxy-4-(4-fluoro-phenyl)-pyrimidin-2-ylamino]-N-(2-methyl-5-morpholin-4-ylmethyl-phenyl)-benzamide] | < 100 | 100 to 1000 | < 100
13 | CCN(CC)Cc1ccc(C)c(NC(=O)c2ccc(Nc3ncc(SC)c(-c4ccc(F)cc4)n3)c(F)c2)c1 [Compound 53, N-(5-Diethylaminomethyl-2-methyl-phenyl)-3-fluoro-4-[4-(4-fluoro-phenyl)-5-methylsulfanyl-pyrimidin-2-ylamino]-benzamide] | < 100 | < 100 | < 100
14 | CSc1cnc(Nc2ccc(C(=O)Nc3cc(CN4CCCCC4)ccc3C)cc2F)nc1-c1ccc(F)cc1 [Compound 42, 3-Fluoro-4-[4-(4-fluoro-phenyl)-5-methylsulfanyl-pyrimidin-2-ylamino]-N-(2-methyl-5-piperidin-1-ylmethyl-phenyl)-benzamide] | < 100 | 100 to 1000 | < 100
15 | CCOc1cnc(Nc2ccc(C(=O)Nc3cc(CN4CCN(C)CC4)ccc3C)cc2)nc1-c1ccc(OC(F)(F)F)cc1 [Compound 73, 4-[5-Ethoxy-4-(4-trifluoromethoxy-phenyl)-pyrimidin-2-ylamino]-N-[2-methyl-5-(4-methyl-piperazin-1-ylmethyl)-phenyl]-benzamide] | < 100 | 100 to 1000 | < 100
16 | CSc1cnc(Nc2ccc(C(=O)Nc3cc(CN4CCOCC4)ccc3C)cc2)nc1-c1cnn(C)c1 [Compound 39, N-(2-Methyl-5-morpholin-4-ylmethyl-phenyl)-4-[4-(1-methyl-1H-pyrazol-4-yl)-5-methylsulfanyl-pyrimidin-2-ylamino]-benzamide] | 100 to 1000 | 100 to 1000 | 100 to 1000
17 | CSc1cnc(Nc2ccc(C(=O)Nc3cccc(CN4CCOCC4)c3)cn2)nc1-c1ccc(OC(F)(F)F)cc1 [Compound 64, 6-[5-Methylsulfanyl-4-(4-trifluoromethoxy-phenyl)-pyrimidin-2-ylamino]-N-(3-morpholin-4-ylmethyl-phenyl)-nicotinamide] | < 100 | < 100 | < 100
18 | CSc1cnc(Nc2ccc(C(=O)Nc3cccc(CN4CCOCC4)c3)cc2F)nc1-c1ccc(OC(F)(F)F)cc1 [Compound 44, 3-Fluoro-4-[5-methylsulfanyl-4-(4-trifluoromethoxy-phenyl)-pyrimidin-2-ylamino]-N-(3-morpholin-4-ylmethyl-phenyl)-benzamide] | < 100 | < 100 | < 100
19 | CSc1cnc(Nc2ccc(C(=O)Nc3c(F)cccc3F)cc2)nc1-c1cccnc1F [Compound 8, N-(2,6-Difluoro-phenyl)-4-[4-(2-fluoro-pyridin-3-yl)-5-methylsulfanyl-pyrimidin-2-ylamino]-benzamide] | 100 to 1000 | 100 to 1000 | 100 to 1000
20 | CSc1cnc(Nc2ccc(C(=O)Nc3cc(CN4CCOCC4)ccc3C)cc2F)nc1-c1ccc(F)cc1 [Compound 41, 3-Fluoro-4-[4-(4-fluoro-phenyl)-5-methylsulfanyl-pyrimidin-2-ylamino]-N-(2-methyl-5-morpholin-4-ylmethyl-phenyl)-benzamide] | < 100 | 100 to 1000 | < 100
21 | COc1cccc(C)c1NC(=O)c1ccc(Nc2ncc(SC)c(-c3cccnc3F)n2)c(F)c1 [Compound 15, 3-Fluoro-4-[4-(2-fluoro-pyridin-3-yl)-5-methylsulfanyl-pyrimidin-2-ylamino]-N-(2-methoxy-6-methyl-phenyl)-benzamide] | < 100 | 100 to 1000 | < 100
22 | Cc1ccc(CN2CCOCC2)cc1NC(=O)c1ccc(Nc2ncc([S+](C)[O-])c(-c3ccc(OC(F)(F)F)cc3)n2)cc1 (stereo not drawn) [Compound 85, 4-[5-Methanesulfinyl-4-(4-trifluoromethoxy-phenyl)-pyrimidin-2-ylamino]-N-(2-methyl-5-morpholin-4-ylmethyl-phenyl)-benzamide] | < 100 | < 100 | < 100
23 | CCN(CC)Cc1cccc(NC(=O)c2ccc(Nc3ncc(SC)c(-c4ccc(OC(F)(F)F)cc4)n3)c(F)c2)c1 [Compound 56, N-(3-Diethylaminomethyl-phenyl)-3-fluoro-4-[5-methylsulfanyl-4-(4-trifluoromethoxy-phenyl)-pyrimidin-2-ylamino]-benzamide] | < 100 | 100 to 1000 | < 100
24 | CSc1cnc(Nc2ccc(C(=O)Nc3c(C)cccc3C)cc2)nc1-c1ccc(OC(F)(F)F)cc1 [Compound 1, N-(2,6-Dimethyl-phenyl)-4-[5-methylsulfanyl-4-(4-trifluoromethoxy-phenyl) -pyrimidin-2-ylamino]-benzamide] | 100 to 1000 | > 1000 | 100 to 1000
